Values belong to the compound of their own block, whether it stands above or below them. Non-standard residues stand in square brackets, D forms with d. Residues, ends and D or L forms follow the SMILES beside them. dPhe(4-Cl) = N[C@H](Cc1ccc(Cl)cc1)C(=O)O; d2Nal = N[C@H](Cc1ccc2ccccc2c1)C(=O)O; dCit = NC(=O)NCCC[C@@H](N)C(=O)O; d3Pal = N[C@H](Cc1cccnc1)C(=O)O
Experiments:
[1] = biological target: ATP-binding cassette sub-family C member 3 (Homo sapiens, UniProt O15438); experiment: Inhibition of human MRP3 overexpressed in Sf9 insect cell membrane vesicles assessed as uptake of [3H]-estradiol-17beta-D-glucuronide in presence of ATP and GSH measured after 10 mins by membrane vesicle transport assay; type: ADME, cell-based
[2] = biological target: T1, ATP-binding cassette sub-family C member 4 (Homo sapiens, UniProt O15439); experiment: Inhibition of human MRP4 overexpressed in Sf9 cell membrane vesicles assessed as uptake of [3H]-estradiol-17beta-D-glucuronide in presence of ATP and GSH measured after 20 mins by membrane vesicle transport assay; type: ADME, cell-based
T1 sequence (O15439 whole entry): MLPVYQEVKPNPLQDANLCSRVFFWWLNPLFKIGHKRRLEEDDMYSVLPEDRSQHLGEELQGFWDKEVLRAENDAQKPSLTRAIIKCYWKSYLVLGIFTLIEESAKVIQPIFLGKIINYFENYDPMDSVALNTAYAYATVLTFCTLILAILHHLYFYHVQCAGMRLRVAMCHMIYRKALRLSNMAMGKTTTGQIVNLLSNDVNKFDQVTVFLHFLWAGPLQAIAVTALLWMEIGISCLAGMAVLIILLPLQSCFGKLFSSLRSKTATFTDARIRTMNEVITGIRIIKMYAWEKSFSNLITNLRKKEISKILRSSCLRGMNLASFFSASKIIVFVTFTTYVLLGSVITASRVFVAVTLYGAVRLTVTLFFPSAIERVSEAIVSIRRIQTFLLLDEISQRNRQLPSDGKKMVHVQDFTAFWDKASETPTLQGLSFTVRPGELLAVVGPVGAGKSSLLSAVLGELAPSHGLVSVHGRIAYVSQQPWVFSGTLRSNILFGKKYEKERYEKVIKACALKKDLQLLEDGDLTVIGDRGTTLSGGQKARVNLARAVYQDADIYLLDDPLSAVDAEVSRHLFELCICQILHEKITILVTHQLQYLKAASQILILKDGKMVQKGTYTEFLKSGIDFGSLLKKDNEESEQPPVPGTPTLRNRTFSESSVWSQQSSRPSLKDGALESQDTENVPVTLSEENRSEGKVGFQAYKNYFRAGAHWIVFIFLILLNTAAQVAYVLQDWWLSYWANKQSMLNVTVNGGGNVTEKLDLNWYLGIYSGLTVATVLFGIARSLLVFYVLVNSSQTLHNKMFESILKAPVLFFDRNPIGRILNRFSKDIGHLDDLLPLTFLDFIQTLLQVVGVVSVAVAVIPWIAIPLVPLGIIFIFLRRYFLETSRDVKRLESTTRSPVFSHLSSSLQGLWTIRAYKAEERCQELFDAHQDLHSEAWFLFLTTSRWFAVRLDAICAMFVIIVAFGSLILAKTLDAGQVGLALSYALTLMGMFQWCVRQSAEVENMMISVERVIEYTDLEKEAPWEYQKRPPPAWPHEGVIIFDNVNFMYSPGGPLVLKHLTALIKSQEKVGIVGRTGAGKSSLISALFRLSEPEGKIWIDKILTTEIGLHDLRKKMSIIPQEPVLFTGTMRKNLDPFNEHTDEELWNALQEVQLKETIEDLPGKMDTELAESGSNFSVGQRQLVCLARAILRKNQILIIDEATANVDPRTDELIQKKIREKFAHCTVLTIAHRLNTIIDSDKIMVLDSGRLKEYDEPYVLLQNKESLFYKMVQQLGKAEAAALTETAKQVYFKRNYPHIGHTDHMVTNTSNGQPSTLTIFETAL

[3] = Drug concentration at steady state in human at 1.25 to 25 mg, po QD after 24 hrs; type: ADME, organism-based; details: in vivo, read-out: Css
[4] = AUC in human at 1.25 to 25 mg, po QD after 24 hrs; type: ADME, organism-based; details: in vivo
[5] = Ratio of drug concentration at steady state in human at 1 to 4 mg, po QD after 24 hrs to IC50 for human MRP4 overexpressed in Sf9 insect cells; type: ADME, organism-based; details: in vivo
[6] = AUC in human at 1 to 4 mg, po QD after 24 hrs; type: ADME, organism-based; details: in vivo
[7] = Ratio of drug concentration at steady state in human at 1 to 4 mg, po QD after 24 hrs to IC50 for human MRP3 overexpressed in Sf9 insect cells; type: ADME, organism-based; details: in vivo
[8] = Ratio of drug concentration at steady state in human at 1 to 4 mg, po QD after 24 hrs to IC50 for human BSEP overexpressed in Sf9 insect cells; type: ADME, organism-based; details: in vivo
[9] = Drug concentration at steady state in human at 1 to 4 mg, po QD after 24 hrs; type: ADME, organism-based; details: in vivo, read-out: Css
[10] = Ratio of drug concentration at steady state in human at 50 mg, po QD after 24 hrs to IC50 for human MRP3 overexpressed in Sf9 insect cells; type: ADME, organism-based; details: in vivo
Bile salt export pump = Bile salt export pump (Homo sapiens, UniProt O95342); experiment: Inhibition of human BSEP overexpressed in Sf9 cell membrane vesicles assessed as uptake of [3H]-taurocholate in presence of ATP measured after 15 to 20 mins by membrane vesicle transport assay; type: ADME, cell-based
[11] = Ratio of drug concentration at steady state in human at 50 mg, po QD after 24 hrs to IC50 for human MRP4 overexpressed in Sf9 insect cells; type: ADME, organism-based; details: in vivo
[12] = AUC in human at 50 mg, po QD after 24 hrs; type: ADME, organism-based; design: dose 50 mg, time < 24 hr, route oral; details: in vivo
[13] = Ratio of drug concentration at steady state in human at 50 mg, po QD after 24 hrs to IC50 for human MRP2 overexpressed in Sf9 insect cells; type: ADME, organism-based; details: in vivo
[14] = biological target: ATP-binding cassette sub-family C member 2 (Homo sapiens, UniProt Q92887); experiment: Inhibition of human MRP2 overexpressed in Sf9 cell membrane vesicles assessed as uptake of [3H]-estradiol-17beta-D-glucuronide in presence of ATP and GSH measured after 20 mins by membrane vesicle transport assay
[15] = Ratio of drug concentration at steady state in human at 50 mg, po QD after 24 hrs to IC50 for human BSEP overexpressed in Sf9 insect cells; type: ADME, organism-based; details: in vivo
[16] = Drug concentration at steady state in human at 50 mg, po QD after 24 hrs; type: ADME, organism-based; details: in vivo, read-out: Css
Homo sapiens [17] = experiment: Ratio of drug concentration at steady state in human at 3 mg, sc administered as single dose during early to mild follicular phase after 24 hrs to IC50 for human BSEP overexpressed in Sf9 insect cells; type: ADME, organism-based; details: in vivo
[18] = AUC in human at 0.25 mg, sc QD after 24 hrs; type: ADME, organism-based; design: dose 0.25 mg, time < 24 hr, route subcutaneous; details: in vivo
Homo sapiens [19] = experiment: Ratio of drug concentration at steady state in human at 0.25 mg, sc QD after 24 hrs to IC50 for human BSEP overexpressed in Sf9 insect cells; type: ADME, organism-based; details: in vivo
[20] = Drug concentration at steady state in human at 0.25 mg, sc QD after 24 hrs; type: ADME, organism-based; details: in vivo, read-out: Css
[21] = AUC in human at 3 mg, sc administered as single dose during early to mild follicular phase after 24 hrs; type: ADME, organism-based; design: dose 3 mg, time < 24 hr, route subcutaneous; details: female, in vivo
Homo sapiens [22] = experiment: Drug concentration at steady state in human 3 mg, sc administered as single dose during early to mild follicular phase after 24 hrs; type: ADME, organism-based; details: in vivo
Homo sapiens [23] = experiment: Ratio of drug concentration at steady state in human at 200 mg, po QD for 1 to 2 weeks after 24 hrs to IC50 for human BSEP overexpressed in Sf9 insect cells; type: ADME, organism-based; details: in vivo
[24] = AUC in human at 200 mg, po QD for 1 to 2 weeks after 24 hrs; type: ADME, organism-based; design: time < 24 hr, dose 200 mg, route oral; details: in vivo
[25] = Drug concentration at steady state in human at 200 mg, po QD for 1 to 2 weeks after 24 hrs; type: ADME, organism-based; details: in vivo, read-out: Css

ATP-binding cassette sub-family C member 3, sequence (O15438 whole entry): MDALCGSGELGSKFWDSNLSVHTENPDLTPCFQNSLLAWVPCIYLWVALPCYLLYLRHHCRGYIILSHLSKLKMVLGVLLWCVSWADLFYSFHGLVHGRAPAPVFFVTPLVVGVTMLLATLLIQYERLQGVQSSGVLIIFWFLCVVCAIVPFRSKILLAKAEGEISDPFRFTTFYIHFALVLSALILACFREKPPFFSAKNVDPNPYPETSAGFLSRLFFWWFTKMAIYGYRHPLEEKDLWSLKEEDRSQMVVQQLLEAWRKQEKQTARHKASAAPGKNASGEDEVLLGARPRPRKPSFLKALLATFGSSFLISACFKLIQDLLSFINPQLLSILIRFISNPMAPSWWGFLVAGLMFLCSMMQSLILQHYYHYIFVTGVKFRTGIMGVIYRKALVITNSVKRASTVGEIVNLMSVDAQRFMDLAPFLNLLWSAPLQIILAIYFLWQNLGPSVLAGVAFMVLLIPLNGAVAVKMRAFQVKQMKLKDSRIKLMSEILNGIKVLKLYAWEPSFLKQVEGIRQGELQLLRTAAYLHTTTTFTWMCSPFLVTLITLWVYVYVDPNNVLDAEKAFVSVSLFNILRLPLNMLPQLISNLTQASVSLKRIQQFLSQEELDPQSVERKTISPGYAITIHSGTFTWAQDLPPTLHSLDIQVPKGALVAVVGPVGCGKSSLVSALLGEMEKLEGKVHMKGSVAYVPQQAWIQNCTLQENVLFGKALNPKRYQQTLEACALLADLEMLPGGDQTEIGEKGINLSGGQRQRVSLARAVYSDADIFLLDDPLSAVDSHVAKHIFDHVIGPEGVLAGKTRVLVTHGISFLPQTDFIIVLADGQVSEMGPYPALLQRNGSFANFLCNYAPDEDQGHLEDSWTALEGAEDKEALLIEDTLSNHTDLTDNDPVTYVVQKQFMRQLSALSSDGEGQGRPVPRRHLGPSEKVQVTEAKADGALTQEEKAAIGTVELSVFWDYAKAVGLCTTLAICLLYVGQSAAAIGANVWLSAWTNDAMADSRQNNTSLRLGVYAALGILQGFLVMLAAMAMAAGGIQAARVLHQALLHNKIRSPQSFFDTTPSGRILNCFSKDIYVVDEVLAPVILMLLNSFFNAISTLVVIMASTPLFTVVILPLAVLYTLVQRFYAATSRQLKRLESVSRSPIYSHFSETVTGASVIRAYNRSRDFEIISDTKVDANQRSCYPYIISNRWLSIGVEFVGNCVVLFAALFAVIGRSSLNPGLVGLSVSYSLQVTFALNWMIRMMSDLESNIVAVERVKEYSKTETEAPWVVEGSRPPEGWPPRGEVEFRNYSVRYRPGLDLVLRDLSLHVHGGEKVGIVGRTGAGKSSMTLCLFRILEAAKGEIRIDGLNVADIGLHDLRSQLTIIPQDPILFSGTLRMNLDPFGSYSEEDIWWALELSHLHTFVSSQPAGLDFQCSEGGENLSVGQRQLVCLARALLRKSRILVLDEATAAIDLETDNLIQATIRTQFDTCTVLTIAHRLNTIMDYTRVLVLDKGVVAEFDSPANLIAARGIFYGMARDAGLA
ATP-binding cassette sub-family C member 2, sequence (Q92887 whole entry): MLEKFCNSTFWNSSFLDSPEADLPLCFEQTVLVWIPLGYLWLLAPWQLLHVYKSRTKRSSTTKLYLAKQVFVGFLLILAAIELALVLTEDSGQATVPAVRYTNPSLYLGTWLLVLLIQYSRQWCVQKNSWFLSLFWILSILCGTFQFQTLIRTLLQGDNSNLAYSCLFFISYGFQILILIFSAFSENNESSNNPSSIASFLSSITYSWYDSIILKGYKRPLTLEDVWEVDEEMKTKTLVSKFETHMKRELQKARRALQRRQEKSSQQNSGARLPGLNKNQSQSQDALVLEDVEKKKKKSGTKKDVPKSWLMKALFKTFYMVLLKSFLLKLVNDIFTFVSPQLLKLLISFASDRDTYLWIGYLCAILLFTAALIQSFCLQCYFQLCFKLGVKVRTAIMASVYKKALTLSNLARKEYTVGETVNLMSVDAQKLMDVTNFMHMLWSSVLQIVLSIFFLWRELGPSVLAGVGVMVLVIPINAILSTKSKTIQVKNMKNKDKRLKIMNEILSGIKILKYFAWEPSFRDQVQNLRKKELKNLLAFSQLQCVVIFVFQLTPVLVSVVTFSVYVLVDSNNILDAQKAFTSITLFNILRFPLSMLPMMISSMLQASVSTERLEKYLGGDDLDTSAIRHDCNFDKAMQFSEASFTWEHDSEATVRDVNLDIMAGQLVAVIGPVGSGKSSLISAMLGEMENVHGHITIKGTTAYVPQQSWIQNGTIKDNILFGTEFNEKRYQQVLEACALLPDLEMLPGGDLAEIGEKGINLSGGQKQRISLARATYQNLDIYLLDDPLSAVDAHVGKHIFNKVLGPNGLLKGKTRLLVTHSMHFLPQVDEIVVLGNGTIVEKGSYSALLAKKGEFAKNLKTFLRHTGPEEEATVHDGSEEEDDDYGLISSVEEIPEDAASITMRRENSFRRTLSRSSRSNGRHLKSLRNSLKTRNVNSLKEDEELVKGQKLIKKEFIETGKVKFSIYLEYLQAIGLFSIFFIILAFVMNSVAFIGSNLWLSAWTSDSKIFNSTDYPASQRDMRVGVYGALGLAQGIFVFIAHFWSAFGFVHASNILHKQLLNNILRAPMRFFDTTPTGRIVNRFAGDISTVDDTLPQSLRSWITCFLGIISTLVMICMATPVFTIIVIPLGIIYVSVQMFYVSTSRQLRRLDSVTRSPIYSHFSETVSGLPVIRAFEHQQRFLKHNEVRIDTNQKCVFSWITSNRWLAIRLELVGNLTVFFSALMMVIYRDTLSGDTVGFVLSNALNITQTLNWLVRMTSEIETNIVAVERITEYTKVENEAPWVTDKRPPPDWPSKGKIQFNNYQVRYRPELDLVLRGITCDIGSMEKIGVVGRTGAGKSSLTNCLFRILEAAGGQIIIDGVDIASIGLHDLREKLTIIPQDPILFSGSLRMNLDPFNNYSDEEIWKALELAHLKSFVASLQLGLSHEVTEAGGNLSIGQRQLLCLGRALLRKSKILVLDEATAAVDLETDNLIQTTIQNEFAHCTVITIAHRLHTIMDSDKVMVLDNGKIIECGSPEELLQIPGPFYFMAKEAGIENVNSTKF
Bile salt export pump, sequence (O95342 whole entry): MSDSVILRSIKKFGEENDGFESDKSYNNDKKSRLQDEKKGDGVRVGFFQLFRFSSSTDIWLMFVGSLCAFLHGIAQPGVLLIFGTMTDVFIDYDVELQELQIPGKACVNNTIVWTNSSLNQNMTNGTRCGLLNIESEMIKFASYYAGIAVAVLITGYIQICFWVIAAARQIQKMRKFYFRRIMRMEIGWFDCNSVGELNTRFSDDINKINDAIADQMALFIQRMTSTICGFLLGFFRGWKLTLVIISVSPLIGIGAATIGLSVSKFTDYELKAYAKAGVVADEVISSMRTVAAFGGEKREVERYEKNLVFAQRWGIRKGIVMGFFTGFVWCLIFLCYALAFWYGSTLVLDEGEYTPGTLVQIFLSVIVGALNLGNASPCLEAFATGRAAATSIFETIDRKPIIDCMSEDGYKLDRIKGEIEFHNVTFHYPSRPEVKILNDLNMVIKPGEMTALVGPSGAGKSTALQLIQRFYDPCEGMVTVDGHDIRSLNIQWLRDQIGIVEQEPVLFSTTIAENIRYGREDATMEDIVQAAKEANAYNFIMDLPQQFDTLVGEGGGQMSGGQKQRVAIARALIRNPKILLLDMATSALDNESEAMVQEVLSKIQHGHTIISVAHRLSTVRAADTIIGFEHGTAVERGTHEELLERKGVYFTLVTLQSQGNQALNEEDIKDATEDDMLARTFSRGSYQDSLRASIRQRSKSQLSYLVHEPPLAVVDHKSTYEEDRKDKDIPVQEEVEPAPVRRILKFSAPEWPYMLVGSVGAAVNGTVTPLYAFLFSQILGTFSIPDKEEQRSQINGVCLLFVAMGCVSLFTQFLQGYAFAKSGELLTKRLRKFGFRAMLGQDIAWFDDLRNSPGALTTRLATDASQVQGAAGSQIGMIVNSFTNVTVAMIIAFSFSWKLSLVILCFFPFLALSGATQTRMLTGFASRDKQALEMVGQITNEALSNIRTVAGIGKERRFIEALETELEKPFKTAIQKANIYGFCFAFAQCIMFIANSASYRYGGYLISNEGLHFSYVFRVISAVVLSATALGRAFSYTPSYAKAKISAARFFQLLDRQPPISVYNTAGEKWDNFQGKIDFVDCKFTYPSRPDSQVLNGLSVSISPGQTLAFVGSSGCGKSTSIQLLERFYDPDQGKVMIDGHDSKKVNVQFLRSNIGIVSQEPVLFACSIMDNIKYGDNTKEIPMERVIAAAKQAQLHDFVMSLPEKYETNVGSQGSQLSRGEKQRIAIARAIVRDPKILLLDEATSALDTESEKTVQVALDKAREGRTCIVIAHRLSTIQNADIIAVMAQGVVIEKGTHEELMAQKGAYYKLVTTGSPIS

Structure (SMILES): CC(=O)N[C@H](Cc1ccc2ccccc2c1)C(=O)N[C@H](Cc1ccc(Cl)cc1)C(=O)N[C@H](Cc1cccnc1)C(=O)N[C@@H](CO)C(=O)N[C@@H](Cc1ccc(O)cc1)C(=O)N[C@H](CCCNC(N)=O)C(=O)N[C@@H](CC(C)C)C(=O)N[C@@H](CCCNC(=N)N)C(=O)N1CCC[C@H]1C(=O)N[C@H](C)C(N)=O.CC(=O)O [CETRORELIX ACETATE] (Ac-[d2Nal][dPhe(4-Cl)][d3Pal]SY[dCit]LRP[dA]-NH2)
Ratio (Homo sapiens [17]): 0.011 | AUC at 24 h [18]: 0.375 µM·h | Ratio (Homo sapiens [19]): 0.011 | IC50 [1]: > 133 µM | IC50 (Bile salt export pump): 1.47 µM | IC50 [2]: > 133 µM | IC50 [14]: > 133 µM | concentration at 24 h [20]: 16 nM | AUC at 24 h [21]: 0.375 µM·h | Css (Homo sapiens [22]): 0.016 µM

Structure (SMILES): CCC(C)n1ncn(-c2ccc(N3CCN(c4ccc(OCC5COC(Cn6cncn6)(c6ccc(Cl)cc6Cl)O5)cc4)CC3)cc2)c1=O (configuration not stated) [ITRACONAZOLE]
IC50 [1]: > 133 µM | IC50 [2]: > 133 µM | IC50 [14]: > 133 µM | Ratio (Homo sapiens [23]): 0.02 | AUC at 24 h [24]: 8.69 µM·h | concentration at 24 h [25]: 362 nM

Stronger by IC50 [1], values ahead:

IC50 [1]: 33 µM | IC50 [2]: 10.5 µM | concentration at 24 h [3]: 112 nM | AUC at 24 h [4]: 2.69 µM·h
Structure (SMILES): COc1ccc(Cl)cc1C(=O)NCCc1ccc(S(=O)(=O)NC(=O)NC2CCCCC2)cc1 [GLYBURIDE]

IC50 [1]: 6.39 µM | IC50 [2]: 64 µM | Ratio [5]: 0.002 | AUC at 24 h [6]: 3.4 µM·h | Ratio [7]: 0.022 | concentration at 24 h [9]: 141 nM
Structure (SMILES): CCC1=C(C)CN(C(=O)NCCc2ccc(S(=O)(=O)NC(=O)N[C@H]3CC[C@H](C)CC3)cc2)C1=O [GLIMEPIRIDE]
Ratio [8]: 0.009

Ratio [10]: 0.018 | IC50 [1]: 45.8 µM | Ratio [11]: 0.128 | IC50 [2]: 6.5 µM | AUC at 24 h [12]: 20 µM·h | Ratio [13]: 0.01 | IC50 [14]: 84.4 µM | concentration at 24 h [16]: 835 nM
Structure (SMILES): CC(/C=C1\SC(=S)N(CC(=O)O)C1=O)=C\c1ccccc1
IC50 (Bile salt export pump): 36.8 µM | Ratio [15]: 0.01

Reference: ChEMBL document CHEMBL4028801, “A multifactorial approach to hepatobiliary transporter assessment enables improved therapeutic compound development” (Toxicol Sci, 2013)
